# Patent US20120302629A1, “BIOMARKERS FOR GOSSYPOL CHEMOTHERAPY AND METHODS OF TREATING DISEASE” (THE REGENTS OF THE UNIVERSITY OF MICHIGAN, priority 2009, published 2012)
# What was measured:
# HMEC cells = assay: Cell death (trypan blue) and western blot in normal cells; format: cell-based, human
# Method: (§1) Cell Growth, Cell Death, and Apoptosis: Cell growth inhibition by (−)-gossypol was determined in a water-soluble tetrazolium (WST)-based assay, as described previously (Shangary et al., Proc. Natl. Acad. Sci. USA 105:3933 (2008)). Cell viability was determined by trypan blue due exclusion as described (Shangary et al., Proc. Natl. Acad. Sci. USA 105:3933 (2008)). Experiments were done in triplicate. To examine apoptosis, cells were stained with Annexin V and PI and analyzed by flow cytometery using an Annexin V-FITC staining kit (Roche Applied Science, Indianapolis, Ind.) according to manufacturer's instructions. Briefly, cells were treated and collected by centrifugation, washed with PBS once and then stained with annexinV-FITC and PI for 15 min at room temperature in the dark. Stained cells were analyzed in a FACS caliber flow cytometer. AnnexinV positive cells are considered as apoptotic cells.
# (§2) Western blot assay: Proteins were harvested in RIPA buffer, then electrophoresed on 4-20% gradient SDS-PAGE gels (Invitrogen, Grand Island, N.Y.) and transferred to PVDF membranes. The membranes were blocked in 5% milk and then incubated with specific primary antibody, followed by secondary antibody. The signals were visualized with the chemiluminescent HRP antibody detection reagent (Deville Scientific, Metuchen, N.J.).
# FF (fibroblast) cells = assay: as above; format: cell-based, human
# Method: as §1, §2
# MCF-12F cells = assay: as above; format: cell-based, human
# Method: as §1, §2
# [1] = test system: caspase-9 and -3/-7 in 2LMP cells; assay: Fluorometric caspase activity assays; format: cell-based, human; conditions: 5 μM
# Method: Fluorometric caspase activity assays: Cells were harvested in cell lysis buffer provided by Biovision research products (Mountain View, Calif.). 20 μg of protein was evaluated for caspase activity by incubating with fluorogenic caspase-3 or -9 substrate (EMD Biosciences) in reaction buffer (Biovision). Detection of cleavage of substrate Ac-DEVD-AFC (preferentially cleaved by caspase-3) and Ac-LEHD-AFC (preferentially cleaved by caspase-9) were measured at a λexc=400 nm and λem=505 nm using a Telcan Ultra plate reader (Männedorf, Switzerland). Experiments were performed in triplicate.
# 2LMP cells [2] = assay: WST cell growth assay; format: cell-based, human; conditions: 4 days
# Method: as §1
# MDA-MB-436 cells = assay: WST cell growth assay; format: cell-based, human; conditions: (−)-gossypol 0.5 and 1 μM, 4 days
# Method: as §1
# PC-3 cells [3] = assay: WST cell growth assay; format: cell-based, human; conditions: 4 days
# Method: as §1
# Bcl-xL = Bcl-xL (Homo sapiens, UniProt Q07817); conditions: Wang et al., J. Med. Chem. 49:6139 (2006); cited from earlier work
# Chain of Bcl-xL (Q07817 whole entry): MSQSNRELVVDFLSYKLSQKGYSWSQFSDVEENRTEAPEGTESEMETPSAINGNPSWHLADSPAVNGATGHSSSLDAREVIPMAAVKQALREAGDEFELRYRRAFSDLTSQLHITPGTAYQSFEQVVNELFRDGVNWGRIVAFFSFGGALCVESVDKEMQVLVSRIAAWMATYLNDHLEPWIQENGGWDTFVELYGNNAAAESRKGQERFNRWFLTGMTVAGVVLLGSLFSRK
# MEF Bax/Bak KO cells = assay: Apoptosis (Annexin V/PI flow cytometry) in MEF cells; format: cell-based; conditions: for cells to undergo apoptosis: 24 h
# Method: as §1
# wild-type MEF cells = assay: as above; format: cell-based; conditions: 24 h
# Method: as §1
# Bcl-2 = Bcl-2 (Homo sapiens, UniProt P10415); conditions: Wang et al., J. Med. Chem. 49:6139 (2006); cited from earlier work
# Chain of Bcl-2 (P10415 whole entry): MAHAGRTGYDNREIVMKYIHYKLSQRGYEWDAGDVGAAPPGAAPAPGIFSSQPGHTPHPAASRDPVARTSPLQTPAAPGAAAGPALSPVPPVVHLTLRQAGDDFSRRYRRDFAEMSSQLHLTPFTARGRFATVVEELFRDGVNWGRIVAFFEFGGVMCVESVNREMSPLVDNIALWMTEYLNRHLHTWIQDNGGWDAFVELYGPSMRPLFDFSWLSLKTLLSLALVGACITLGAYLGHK
# 2LMP cells [4] = assay: Cell death by trypan blue dye exclusion; format: cell-based, human; conditions: for cell death: 48 h
# Method: as §1
# PC-3 cells [5] = assay: Cell death by trypan blue dye exclusion; format: cell-based, human
# Method: as §1
# [6] = test system: 5 breast (MDA-MB-231, MDA-MB-436, MDA-MB-468, BT-549 and MCF-7) and 3 prostate (22Rv1, DU145 and LNCaP) cancer cell lines; assay: Western blot in 8 additional cancer cell lines; format: cell-based, human; conditions: treated for 24 h, all 8 cancer cell lines
# Method: as §2
# [7] = test system: Bcl-2 family proteins in PC-3 cells; assay: Western blot of whole cell lysates; format: cell-based, human; conditions: 10 μM
# Method: as §2
# [8] = test system: Bcl-2 family proteins in 2LMP cells; assay: Western blot of whole cell lysates; format: cell-based, human
# Method: as §2
# 2LMP cells [9] = assay: Apoptosis (Annexin V/PI flow cytometry) after siRNA knock-down; format: cell-based, human
# Method: as §1
# (§3) RNA interference: Gene specific double-stranded RNA oligonucleotide targeting Noxa, Puma, c-Myc, HIF1-α, E2F1#2, Bax, Bak, were purchased from Dharmacon RNAi technologies as Sigenome on-targetplus SMARTpool duplex (Lafayette, Colo.). SiRNA of E2F#1 was purchased from Santa Cruz. As a negative control, siRNA against GFP target sequence 5′-[…]-3′ was employed (Qiagen, Valencia, Calif.). Transfections were performed using Lipofectamine RNAiMAX, according to manufacturer's instructions (Invitrogen, Carlsbad, Calif.). (−)-Gossypol was added 24 h after transfection and cells were harvested after 18 h treatment of (−)-gossypol. Three independent knock down experiments were performed for each gene.
# PC-3 cells [10] = assay: as above; format: cell-based, human
# Method: as §1, §3
# DU145 cells = assay: Cell death (trypan blue) after siRNA knock-down; format: cell-based, human
# Method: as §1
# (§4) RNA interference: Gene specific double-stranded RNA oligonucleotide targeting Noxa, Puma, c-Myc, HIF1-α, E2F1#2, Bax, Bak, were purchased from Dharmacon RNAi technologies as Sigenome on-targetplus SMARTpool duplex (Lafayette, Colo.). SiRNA of E2F#1 was purchased from Santa Cruz. As a negative control, siRNA against GFP target sequence 5′-[…]-3′ was employed (Qiagen, Valencia, Calif.). […]
# Puma mRNA in 2LMP cells = assay: Taqman real-time PCR; format: cell-based, human; conditions: 10 μm
# Method: (§5) Real-Time PCR: Total RNA was extracted by RNA miniprep kit (Sigma) from cells treated with or without of (−)-gossypol. cDNA was synthesized from 2 μg of RNA using cDNA reverse transcription kits (Applied Biosystems). Next, Taqman gene expression assays were performed using Noxa (Hs00560402_ml), Puma (Hs00248075_ml), Mcl-1 (Hs00172036_ml) gene specific primers/probe sets for real-time PCR in a ABI7900HT PCR machine. GAPDH (Hs99999905_ml) was used for normalization. Relative quantitation of mRNA was calculated by comparative cycle threshold (Ct) method.
# Noxa mRNA in 2LMP cells = assay: Taqman real-time PCR; format: cell-based, human; conditions: 10 μm
# Method: as §5
# [11] = test system: long form of Mcl-1 mRNA in 2LMP cells; assay: Taqman real-time PCR; format: cell-based, human; conditions: 10 μm, 5-10 h time-points
# Method: as §5
# RKO colon cancer cells = assay: Cell death after c-Myc knock-down; format: cell-based; conditions: p53 wild-type, c-Myc siRNA
# Method: as §1, §4
# Mcl-1 = Mcl-1 (Homo sapiens, UniProt Q07820); conditions: Wang et al., J. Med. Chem. 49:6139 (2006); cited from earlier work
# Chain of Mcl-1 (Q07820 whole entry): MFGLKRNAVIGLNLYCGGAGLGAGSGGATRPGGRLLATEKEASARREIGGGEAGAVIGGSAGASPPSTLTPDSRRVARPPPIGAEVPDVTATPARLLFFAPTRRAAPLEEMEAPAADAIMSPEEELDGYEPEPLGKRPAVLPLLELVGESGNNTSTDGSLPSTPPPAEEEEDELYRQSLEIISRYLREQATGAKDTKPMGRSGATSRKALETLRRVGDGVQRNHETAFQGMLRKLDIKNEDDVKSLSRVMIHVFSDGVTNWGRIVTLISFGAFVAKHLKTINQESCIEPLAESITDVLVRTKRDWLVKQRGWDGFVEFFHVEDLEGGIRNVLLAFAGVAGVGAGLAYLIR
structure (smiles),measurement,setting,value
Cc1cc2c(C(C)C)c(O)c(O)c(C=O)c2c(O)c1-c1c(C)cc2c(C(C)C)c(O)c(O)c(C=O)c2c1O [(−)-gossypol],Noxa induction,HMEC cells; 24-48 h treatment at 10 μM,not induced
same,cell death,HMEC cells; compared to 2LMP cells,minimal cell death
same,Noxa induction,FF (fibroblast) cells; 24-48 h treatment at 10 μM,not induced
same,cell death,FF (fibroblast) cells; compared to 2LMP cells,minimal cell death
same,Noxa induction,MCF-12F cells; 24-48 h treatment at 10 μM,not induced
same,cell death,MCF-12F cells; compared to 2LMP cells,minimal cell death
same,activity of caspase-9 and -3/-7 induced,[1]; 24 h treatment,7 fold
same,activity of caspase-9 and -3/-7 induced,[1]; 48 h treatment,> 60 fold
same,sensitization to ABT-737,2LMP cells [2]; (−)-gossypol 0.5 and 1 μM,effectively sensitize
same,sensitization to ABT-737,MDA-MB-436 cells,effectively sensitize
same,sensitization to ABT-737,PC-3 cells [3]; (−)-gossypol 0.5 and 1 μM,effectively sensitize
same,binding affinity,Bcl-xL,low to sub-micromolar
same,cells to undergo apoptosis,MEF Bax/Bak KO cells; 5 μM,11%
same,cells to undergo apoptosis,MEF Bax/Bak KO cells; 10 μM,13%
same,cell death reduced in the Bax/Bak double knock-out,"MEF Bax/Bak KO cells; 20 μM, versus wild-type MEF",25%
same,cells to undergo apoptosis,wild-type MEF cells; 5 μM,29%
same,cells to undergo apoptosis,wild-type MEF cells; 10 μM,33%
same,binding affinity,Bcl-2,low to sub-micromolar
same,cells killed,"2LMP cells [4]; 2.5 μM, 48 h treatment",14%
same,cells to undergo cell death,"2LMP cells [4]; 10 μM, 24 hour-treatment (FIG. 1)",30-40%
same,cells lost their viability,"2LMP cells [4]; 10 μM, 24 h time-point",approximately 40%
same,cells lost their viability,"2LMP cells [4]; 10 μM, 36 h time-point",approximately 70%
same,cells lost their viability,"2LMP cells [4]; 10 μM, 48 h time-point",~100%
same,cell death at time-points earlier than 12 h,"2LMP cells [4]; 10 μM, time course",no significant cell death
same,cells to undergo cell death,"PC-3 cells [5]; 10 μM, 24 hour-treatment",30-40%
same,cells lost their viability,"PC-3 cells [5]; 10 μM, 24 h time-point",approximately 40%
same,cells lost their viability,"PC-3 cells [5]; 10 μM, 36 h time-point",approximately 70%
same,cells lost their viability,"PC-3 cells [5]; 10 μM, 48 h time-point",~100%
same,cell death at time-points earlier than 12 h,"PC-3 cells [5]; 10 μM, time course",no significant cell death
same,lowest concentration with significant upregulation of Noxa,[6],2.5 µM
same,earliest time of clear Noxa protein induction,[7],4 h
same,earliest time of dramatic induction of the short forms of Mcl-1,[7],8 h
same,time of Puma protein upregulation,[7],8 h
same,earliest time of clear Noxa protein induction,[8]; 10 μM,4 h
same,earliest time of dramatic induction of the short forms of Mcl-1,[8]; 10 μM,8 h
same,time of Puma protein upregulation,[8]; 10 μM,8 h
same,Bcl-xL protein level,"[8]; 10 μM, 12 h time-point",significant down-regulation
same,lowest concentration with clear induction of Noxa and Puma,[8]; 24-h treatment (FIG. 8A),2.5 µM
same,apoptosis induction blocked by double knockdown of Bax/Bak,"2LMP cells [9]; 10 μM, 18 h, Bax and Bak siRNA",approximately 70%
same,cell death induction blocked by knock-down of c-Myc,"2LMP cells [9]; 10 μM, c-Myc siRNA",> 70%
same,apoptosis induction decreased by knock-down of Puma,"2LMP cells [9]; 18 h, Puma siRNA",30-50%
same,apoptosis induction reduced by knock-down of Noxa,"2LMP cells [9]; all the concentrations tested, 18 h, Noxa siRNA",> 50%
same,cell death induction blocked by knock-down of c-Myc,"PC-3 cells [10]; 10 μM, c-Myc siRNA",> 70%
same,effect of double knockdown of Bax/Bak on apoptosis induction,"PC-3 cells [10]; 18 h, Bax and Bak siRNA",no effect
same,effect of double knockdown of Bax/Bak on apoptosis induction,"DU145 cells; 18 h, Bax and Bak siRNA",modestly reduced
same,cell death induction upon c-Myc knock-down,"DU145 cells; p53-mutated, c-Myc siRNA",effective blockage
same,Puma mRNA increased,Puma mRNA in 2LMP cells; 2.5 h time-point,1.4 fold
same,Puma mRNA increased,Puma mRNA in 2LMP cells; 5 h time-point,5.4 fold
same,Puma mRNA increased,Puma mRNA in 2LMP cells; 7.5 h time-point,5 fold
same,Puma mRNA increased,Puma mRNA in 2LMP cells; 10 h time-point,4.3 fold
same,mRNA levels of Noxa increased,Noxa mRNA in 2LMP cells; 2.5 h time-point,2.3 fold
same,mRNA levels of Noxa increased,Noxa mRNA in 2LMP cells; 5 h time-point,9 fold
same,mRNA levels of Noxa increased,Noxa mRNA in 2LMP cells; 7.5 h time-point,24 fold
same,mRNA levels of Noxa increased,Noxa mRNA in 2LMP cells; 10 h time-point,37 fold
same,increase of the long form of Mcl-1 mRNA,[11],less than 3 fold
same,cell death induction upon c-Myc knock-down,RKO colon cancer cells,effective blockage
same,binding affinity,Mcl-1,low to sub-micromolar
"CN(C)CC[C@H](CSc1ccccc1)Nc1ccc(S(=O)(=O)NC(=O)c2ccc(N3CCN(Cc4ccccc4-c4ccc(Cl)cc4)CC3)cc2)cc1[N+](=O)[O-] [ABT-737, reference compound]",IC50,"2LMP cells [2]; Homo sapiens, 96 h",> 10 µM
same,IC50,"PC-3 cells [3]; Homo sapiens, PC-3, 96 h",> 10 µM
same,cell death,2LMP cells [4]; 1 μM,no effect
same,cell death,2LMP cells [4]; 2.5 μM,no effect
same,cell death induction upon knock-down of Mcl-1,2LMP cells [4]; Mcl-1 knock-down,sensitizes
same,cell death induction upon knock-down of Mcl-1,PC-3 cells [5]; Mcl-1 knock-down,sensitizes
